Reference: patent US20250281610A1, “P2RY2 ACTIVITY MODULATORS” (Deutsches Krebsforschungszentrum Stiftung des öffentlichen …, priority 2022, published 2025)

Experiments:
[1] = tested on: CEA-specific CAR transduced T cells co-cultured with SW480 cells; assay: T cell activation in co-culture of CEA-specific CAR-T cells with SW480 cells; assay type: cell-based, human; conditions: 10 μM AR-C, 24 hours, CD3+CD8+ or CD3+CD4+ population (FIG. 19)
Experimental: FIG. 19. Effects of P2RY2 agonist and P2RY2 antagonist on T cell activity in T cell-cancer cell co-cultures. T cells transduced with a CEA-specific CAR (CAR-T) were co-cultured with genetically edited SW480 cells for 24 hours in the absence or presence of 40 μM ATP, 200 μM ATPγS, 10 μM Diquafosol, 5 μM Denufosol and 10 μM AR-C 118925XX (AR-C). Control cells: SW480 cells transduced with non-targeting sgRNA and Cas9 (gNT); P2RY2 deficient cells: SW480 cells transduced with P2RY2-targeting sgRNA and Cas9 (gP2RY2-3, gP2RY2-4); B7-H3 (CD276) deficient cells: SW480 cells transduced with B7-H3-targeting sgRNA and Cas9 (gCD276-1); P2RY2 and B7-H3 double deficient cells: SW480 cells transduced with P2RY2-targeting sgRNA, B7-H3-targeting sgRNA, and Cas9 (gCD276-1 gP2RY2-3 DKO, gCD276-1 gP2RY2-4 DKO); P2RY2 overexpression cells: SW480 cells transduced with the open reading frame of P2RY2 (P2RY2-OE); B7-H3 overexpression cells: SW480 cells transduced with the open reading frame of CD276 (CD276-OE). Transduced cancer cells were selected by antibiotics according to antibiotic resistance genes carried by the lentiviral constructs. Flow cytometry analysis of expression of CD25 and CD69 and production of IFNγ within the CD3+CD8+ or CD3+CD4+ cell population is shown (values indicate the percentages of positive cells).
MART-1 specific T cells were generated as described (Mezzadra et al., Nature 549, 106-110 (2017); Jorritsma et al., Blood 110 (10): 3564-3572. (2007)). To generate CD33-specific chimeric antigen receptor (CAR) T cells and CEA-specific CAR-T cells, a CD33Hul95-CD28Z CAR (described in WO 2019/178382) cassette and MFE-23 (described in US20050147614A1)-CD28Z CAR were separately cloned into retroviral vectors, and the resulting virus was used to transduce T cells as described (Mezzadra et al., Nature 549, 106-110 (2017); Jorritsma et al., Blood 110 (10): 3564-3572. (2007)).
The open reading frames of transcripts of P2RY2 (ENST00000393597.7) or CD276 (ENST00000318443.10), were ordered as a codon optimized gBlock Gene Fragment (Integrated DNA Technologies or Twist Bioscience) and cloned into a lentiviral vector containing a blasticidin selection cassette. Constructs were verified by Sanger sequencing.
MART1-specific CD8+ T cells and MART1 epitope-expressing cancer cells were mixed at a ratio of 1:16 to 1:1. CD33 CAR-T cells and CD33 expressing THP-1 cells were mixed at a ratio of 1:16 to 1:4. CEA CAR-T cells and CEA expressing SW480 cells were mixed at a ratio of 1:1. Next, cells were centrifugated at 1,600 g for 3 min and incubated at 37° C. and 5% CO2 for 12-72 hours. T cell activation was assessed by surface staining with anti-CD137-BV421 (4-1BB, Biolegend), anti-CD137-PE/Cy7 (4-1BB, Biolegend), anti-CD69-APC/Fire™ 750 (FN50, Biolegend), anti-CD25-AF700 (BC96, Biolegend), anti-CD25-APC (BC96, Biolegend) antibodies and intracellular staining with anti-IL-2-PE/Cy7 (MQ1-17H12, Biolegend), anti-IFN-7-BV421 (4S.B3, Biolegend), anti-TNF-α-BV785 (MAb11, Biolegend), anti-TNF-α-APC (MAb11, Biolegend) antibodies, followed by flow cytometry analysis. For intracellular staining, brefeldin A (Biolegend) was added to the cell culture medium 4 h before cells were harvested. The viability of cancer cells that grow in suspension including THP-1 cells was assessed by flow cytometry-based absolute cell counting using AccuCount beads (Spherotech). For adherent cancer cells including BxPC3, MIA PaCa-2, MDA-MB-231 and MCF7, the cell viability was quantified using CellTiter-Blue Cell Viability Assay (Promega).

SW480 cells = assay: Viability of SW480 cells in co-culture with CEA-specific CAR-T cells (CellTiter-Blue); assay type: cell-based, human; conditions: 10 μM AR-C, 48 hours (FIG. 20)
Experimental: FIG. 20. Effects of P2RY2 agonist and P2RY2 antagonist on cancer cell viability in T cell-cancer cell co-cultures. T cells transduced with a CEA-specific CAR (CAR-T) were co-cultured with genetically edited SW480 cells for 48 hours in the absence or presence of 40 μM ATP, 20 μM ATPγS, 10 μM Diquafosol, 5 μM Denufosol and 10 μM AR-C 118925XX (AR-C). Control cells: SW480 cells transduced with non-targeting sgRNA and Cas9 (gNT); P2RY2 deficient cells: SW480 cells transduced with P2RY2-targeting sgRNA and Cas9 (gP2RY2-3, gP2RY2-4); B7-H3 (CD276) deficient cells: SW480 cells transduced with B7-H3-targeting sgRNA and Cas9 (gCD276-1); P2RY2 and B7-H3 double deficient cells: SW480 cells transduced with P2RY2-targeting sgRNA, B7-H3-targeting sgRNA, and Cas9 (gCD276-1 gP2RY2-3 DKO, gCD276-1 gP2RY2-4 DKO); P2RY2 overexpression cells: SW480 cells transduced with the open reading frame of P2RY2 (P2RY2-OE); B7-H3 overexpression cells: SW480 cells transduced with the open reading frame of CD276 (CD276-OE). […] Normalized cell viability of the SW480 cells was determined by the CellTiter-Blue® Cell Viability (Promega) assay after co-culture with CEA CAR-T cells. The end-point cell viability was normalized to SW480 cells, as measured using the CellTiter-Blue® Cell Viability (Promega) assay, in cultures without T cells. […]

## Cc1ccc2c(c1)C=Cc1cc(C)ccc1C2c1cn(Cc2ccc(C(=O)Nc3nn[nH]n3)o2)c(=O)[nH]c1=S [AR-C 118925XX]
[1]
  expression of T cell activation marker CD25: increased
  expression of T cell activation marker CD69: increased
  expression of T cell activation marker IFN-7: increased
SW480 cells
  tumor cell viability: reduced
